Assay results taken from patent US5622948A, “Pyrrole pyridazine and pyridazinone anti-inflammatory agents” (Syntex (U.S.A.) Inc., priority 1994, dated 1997).
pIC50: −log10 of the molar value.

Key:
[1] = target: T1, COX II (Homo sapiens, UniProt P35354); assay: radiometric assay, COX II inhibition (human recombinant, baculovirus expressed, partially purified); format: biochemical; parameters: A 1.8 Kb DNA fragment containing the coding region of human COX II was generated by PCR; made in house; host or cells: Sf9 insect cells, baculovirus; conditions: radiometric assay, human recombinant baculovirus expressed enzyme; read-out: COX II IC50 (Table 2)
T1 sequence (P35354 18-604): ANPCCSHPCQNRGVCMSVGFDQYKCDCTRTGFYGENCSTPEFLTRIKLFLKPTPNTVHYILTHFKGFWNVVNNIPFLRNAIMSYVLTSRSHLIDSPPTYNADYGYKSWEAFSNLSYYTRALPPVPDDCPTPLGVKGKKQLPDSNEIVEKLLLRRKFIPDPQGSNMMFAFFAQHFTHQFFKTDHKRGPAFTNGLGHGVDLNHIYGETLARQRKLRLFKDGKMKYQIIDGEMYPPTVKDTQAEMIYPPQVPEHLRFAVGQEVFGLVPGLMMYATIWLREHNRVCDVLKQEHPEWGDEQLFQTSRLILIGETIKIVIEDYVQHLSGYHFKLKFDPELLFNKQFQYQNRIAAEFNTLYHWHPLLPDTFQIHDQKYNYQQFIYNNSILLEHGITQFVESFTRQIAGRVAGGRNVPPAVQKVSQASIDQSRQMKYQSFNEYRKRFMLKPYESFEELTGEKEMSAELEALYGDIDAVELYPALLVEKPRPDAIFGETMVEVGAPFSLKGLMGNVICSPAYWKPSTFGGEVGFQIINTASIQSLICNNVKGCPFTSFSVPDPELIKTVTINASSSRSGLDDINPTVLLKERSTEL
Protocol: (§1) Human prostaglandin G/H synthase I and II ("COX I" and "COX II") were expressed in the baculovirus expression system and purified to high levels.
(§2) As described above, human recombinant COX I and COX II were cloned and expressed in a baculovirus system. Partially purified COX I and COX II enzymes were used for screening compounds for their ability to inhibit COX I and COX II activity, as described below.
(§3) Compound (16), in 2 μl DMSO, and control samples (carrier vehicles only) were mixed with COX I or COX II samples (e.g. fractions from the chromatography columns) in polypropylene tubes and preincubated with 2 mM phenol for 5 minutes and then with 1 μM hematin for an additional 5 minutes. The 150 μl reaction mixture consisted of 50 mM Tris --HCl, pH 7.9, 2 mM EDTA, 10% glycerol, 200 μM phenol, 1 μM hematin, 1-25 μl sample and 20 μM 1-[^14 C] arachidonate (80.000-100.000 cpm/tube). After 45 seconds at room temperature, the reaction was terminated by adding 200 μl of 2N HCl and 750 μl water. An aliquot (950 μl) of the reaction mixture was loaded onto a 1 ml C~ Sep-Pak (J. T. Baker, Phillipsburg, N.J.) which had been previously washed with 2-3 ml methanol and equilibrated with 5-6 ml distilled water. Oxygenated products were quantitatively eluted with 3 ml of acetonitrile, H2 O and acetic acid (50:50:0.1, v/v) and the radioactivity in the eluate determined in a scintillation counter.
(§4) Human recombinant 10 min incubation with Compound (16)
(§5) baculovirus 45 sec incubation with 20 μM AA
(§6) partially purified Separation of radioactive products

[2] = target: COX I (Homo sapiens, UniProt P23219); assay: radiometric assay, COX I inhibition (human recombinant, baculovirus expressed, partially purified); format: biochemical; parameters: A 2 Kb fragment containing the coding region of COX I; made in house; host or cells: Sf9 insect cells, baculovirus (cDNA from Oxford Biomedical Research); conditions: radiometric assay, human recombinant baculovirus expressed enzyme; read-out: COX I IC50 (Table 2)
Chain of COX I (P23219 24-599): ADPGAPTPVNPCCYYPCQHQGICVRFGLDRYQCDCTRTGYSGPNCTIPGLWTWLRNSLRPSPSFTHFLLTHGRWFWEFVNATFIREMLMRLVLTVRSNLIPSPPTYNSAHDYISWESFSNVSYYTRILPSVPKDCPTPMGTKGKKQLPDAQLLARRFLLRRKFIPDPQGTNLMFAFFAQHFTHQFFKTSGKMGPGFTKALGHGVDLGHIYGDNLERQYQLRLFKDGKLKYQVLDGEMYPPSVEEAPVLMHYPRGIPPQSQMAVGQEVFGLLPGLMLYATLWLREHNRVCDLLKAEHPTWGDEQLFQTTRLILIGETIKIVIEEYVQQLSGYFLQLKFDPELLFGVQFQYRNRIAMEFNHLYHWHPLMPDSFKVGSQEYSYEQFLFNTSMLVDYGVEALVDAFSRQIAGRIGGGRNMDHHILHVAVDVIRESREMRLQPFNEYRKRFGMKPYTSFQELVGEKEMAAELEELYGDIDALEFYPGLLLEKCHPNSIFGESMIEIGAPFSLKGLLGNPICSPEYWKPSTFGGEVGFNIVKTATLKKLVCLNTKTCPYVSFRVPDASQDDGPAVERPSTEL
Protocol: as §1, §2, §3, §4, §5, §6

[3] = physical stability / phase transformation of crystal forms of Compound (16); format: physicochemical; conditions: for conversion when suspended in alcohol or ethyl acetate: suspended in alcohol (Phase II: alcohol or ethyl acetate)
Source text: Phase I was obtained when Compound (16) was recrystallized from methanol, ethanol, ethanol/acetic acid, acetone, ethyl acetate, ethyl acetate/acetic acid, dichloromethane, tetrahydrofuran or tetrahydrofuran/ethyl acetate.
Phase II was obtained when Compound (16) was recrystallized from toluene.
Phase III was obtained by rapid precipitation of Compound (16) from acetic acid/water.
Hydrate I, a monohydrate, was also obtained by slow recrystallization of Compound (16) from acetic acid/water.

[4] = test system: stomach and intestines; conditions: general statement (background); cited from earlier work
[5] = test system: stomach PGE2; format: in vivo, rat; conditions: 2-5 mg/kg
Protocol: To examine the effect of Compound (16) on prostaglandin (PG) synthesis in inflamed tissues, Compound (16) was tested in a carrageenan-induced inflammation (air-pouch model) in rats. PGE2 levels in the air-pouch exudate were measured by enzyme immunoassay in rats treated with 0.1-30 mg/kg of Compound (16). […] […].
To test the effects of Compound (16) on PG synthesis in non-inflamed tissue, PGE2 levels were measured in the stomach of rats from the above experiments. […]

[6] = test system: adjuvant-induced arthritis; assay: adjuvant-induced arthritis in the rat; format: in vivo; conditions: second test
[7] = test system: PGE2 levels in the air-pouch exudate; assay: PGE2 in exudate of carrageenan-induced inflammation (air-pouch model) in rats; format: in vivo, rat; conditions: 2-5 mg/kg

## CC(=O)OCn1nc(Cc2cc(C)c(C(=O)c3ccc(Cl)cc3)n2C)ccc1=O [Compound 161, acetic acid 2-{3-[5-(4-chloro-benzoyl)-1,4,-dimethyl-1H-pyrrol-2-ylmethyl]-6-oxo-6H-pyridazin-1-yl}-methyl ester]
[1]
  pIC50: 6.21
[2]
  pIC50: 4.19

## COc1ccc(Cn2nc(Cc3cc(C)c(C(=O)c4ccc(Cl)cc4)n3C)ccc2=O)cc1 [Compound 168, 6-[5-(4-chloro-benzoyl)-1,4,-dimethyl-1H-pyrrol-2-ylmethyl]-2-(4-methoxybenzyl)-2H-pyridazin-3-one]
[1]
  pIC50: 6.04
[2]
  pIC50: 5.10

## Cc1cc(Cc2ccc(=O)[nH]n2)n(C)c1C(=O)c1ccc(Cl)cc1 [Hydrate I]
[3]; 40° C./75% relative humidity
  physical stability, duration: 14 days
[3]; 40° C./ambient relative humidity, within 11-95% relative humidity
  physical stability: physically stable
[3]; 120° C.
  conversion on heating at 120° C.: phase conversion to another anhydrous crystal form
[3]; below 100° C., ambient conditions and 23% relative humidity
  dehydration at temperatures below 100° C.: produced a metastable form that converted back to Hydrate I
[3]
  conversion when suspended in alcohol or ethyl acetate: can be converted back to Phase I

## Cc1cc(Cc2ccc(=O)[nH]n2)n(C)c1C(=O)c1ccc(Cl)cc1 [Phase III]
[3]
  conversion when suspended in alcohol or ethyl acetate: converted to Phase I
  conversion when suspended in water: converted to Hydrate I

## Cc1cc(Cc2ccc(=O)[nH]n2)n(C)c1C(=O)c1ccc(Cl)cc1 [Phase II]
[3]
  conversion when suspended in alcohol or ethyl acetate: converted to Phase I
  conversion when suspended in water: converted to another hydrate, Hydrate II

## Cc1cc(Cc2ccc(=O)[nH]n2)n(C)c1C(=O)c1ccc(Cl)cc1 [Phase I]
[3]; milling and micronization
  phase transformation on milling and micronization: did not cause any phase transformation
[3]
  conversion when suspended in water: converted to a monohydrate, Hydrate I
[3]; unmilled (-200 μm), 40° C./75% relative humidity
  physically stable for: at least 4 days

## COc1ccc2c(c1)c(CC(=O)O)c(C)n2C(=O)c1ccc(Cl)cc1 [indomethacin, reference compound]
[4]
  corrosiveness to the stomach and intestines of rats: highly corrosive to the stomach and intestines of rats
[5]
  inhibition of stomach PGE2: > 80%
[6]; 0.3 mg/kg/day
  inhibition of adjuvant-induced arthritis: 66%
[6]; 0.6 mg/kg/day
  inhibition of adjuvant-induced arthritis: 79%
[7]
  inhibition of PGE2 in the exudates: > 70%
